# Data reported in article PMC11623267, “Inhibitors of malaria parasite cyclic nucleotide phosphodiesterases block asexual blood-stage development and mosquito transmission” (Science Advances, 2024).
# Like-named read-outs stand apart in the source and are kept apart here.
# Legend:
# Type in all cases: cell-based, Plasmodium falciparum
# [1] = test system: P. falciparum clinical isolates from Tororo and Busia Districts of Uganda; test: Ex vivo 72-hour SYBR Green assay, Ugandan clinical isolates; details: 47 Ugandan isolates
# Source text: Clinical isolates were from the Tororo District of Uganda, located in the central-eastern part of the county near the Kenya border. Tororo and surrounding areas have high-intensity, year-round malaria transmission. […] Patients reporting use of antimalarial treatment within the previous 30 days or with evidence of an infection with other Plasmodium species were excluded. Informed consent was obtained from patients and/or primary care givers (depending on age); children aged 8 to 17 years provided assent. Two to 5 ml of blood was collected by venipuncture in a heparin tube. Samples were delivered to the adjacent IDRC laboratory at Tororo District Hospital or transported by car from Masafu Hospital on the day of collections for storage of blood spots on filter paper (for isolation of nucleic acids) and initiation of ex vivo culture of malaria parasites. Treatment involved a standard therapeutic regimen for uncomplicated falciparum malaria, which was a 3-day course of the artemisinin-based combination therapy (ACT), artemether-lumefantrine. In Uganda, at the time of sampling, there was widespread resistance to the antifolate drugs due to mutant pfdhfr/pfdhps alleles. […] Chloroquine was prepared at 10 mM in water. Stock solutions were stored at −20°C. Working solutions were freshly prepared from a single aliquot within 4 hours of the susceptibility test and stored at 4°C.
# (§1) Samples were delivered to the adjacent IDRC laboratory at Tororo District Hospital or transported by car from Masafu Hospital on the day of collection for storage of blood spots on filter paper (for isolation of nucleic acids) and initiation of ex vivo culture of malaria parasites. […] Before assay, 10 mM antimalarial stock compounds were diluted as necessary in DMSO and stored at −20°C. […] Compounds were serially diluted threefold in a 96-well assay plate in complete medium to a final volume of 50 μl, in columns 1 to 10, with concentrations optimized to capture full dose-response curves. Column 11 contained compound-free controls, while column 12 contained uninfected human RBC controls. Parasite culture (150 μl) was added to columns 1 to 11 of the assay plate with a final volume of 200 μl per well, 0.2% parasitemia, and 2% hematocrit. […] Thawed plates were incubated with SYBR Green lysis buffer for 1 hour in the dark as previously reported ([62]). Fluorescence was quantified using a BMG Fluostar Optima plate reader at an excitation of 485 nm and an emission of 530 nm, and data were plotted using GraphPad Prism 7. The data were curve fit with a variable slope function to estimate IC50 values. For each isolate, a Z′ factor to assess assay quality was calculated from positive controls (eight drug-free wells) and negative controls (eight parasite-free, red cell control wells). Z′ values over 0.5 were considered good assays, but each curve was also examined by eye for suitability. Some assays with Z′ below 0.5 may be considered valid depending on factors such as the SE of the curve-fit IC50.
# [2] = test system: P. falciparum 3D7; test: Ex vivo 72-hour SYBR Green assay, 3D7 control (Uganda); details: Ugandan ex vivo assay control; read-out: EC50 lab strain 3D7
# Method: as §1
# [3] = test system: P. falciparum (clone 3D7); test: Parasite reduction ratio (PRR) assay
# Method: The in vitro killing profile of compounds was determined by monitoring the ability of parasites to recover following treatment with a compound of interest using a previously reported approach ([50]), which allowed calculation of the PRR ([51]). […] To quantify the number of viable parasites following treatment, four independent sets of threefold serial dilutions were performed on each sample, which were assayed for the presence or absence of parasites after 28 days using the LDH assay, and the number of viable parasites was determined by the number of wells showing growth. PRR and PCT99.9% were calculated as previously reported ([50]).
# [4] = test system: P. falciparum Dd2-B2; test: 72-hour flow cytometry EC50 assay, Dd2-B2 parental line; details: Plasmodium falciparum, DD2, read-out: EC50 Dd2-B2 parental line
# [5] = test system: P. falciparum Dd2-B2 lines selected under drug pressure; test: 72-hour flow cytometry EC50 assay, lines selected under drug pressure; details: for EC50: Plasmodium falciparum
Compound,"EC50 ([1]; read-out: EC50 clinical isolates, Gmean (geometric mean))","EC50 ([1]; read-out: EC50 clinical isolates, Median)",EC50 [2],"Lag phase ([3]; 10× EC50, 3D7)","Log PRR ([3]; 10× EC50, 3D7)","PCT99.9% (hours taken to kill 99.9% of the parasites) ([3]; 10× EC50, 3D7)","Slope ([3]; 10× EC50, 3D7 killing profile)","Killing profile ([3]; 10× EC50, faster than pyrimethamine, slower than chloroquine)",EC50 [4],"EC50 ([5]; DD2, read-out: EC50, line selected with SAL-0010003, Well A7)","EC50 ([5]; DD2, read-out: EC50, line selected with SAL-0010003, Well E2)","EC50 ([5]; DD2, read-out: EC50, line selected with SAL-0010003, Well F10)","Mean fold change in EC50 ([5]; selected lines vs Dd2-B2 parental line, ±SD)","EC50 shift, line selected with SAL-0010003, Well A7 ([5]; vs Dd2-B2)","EC50 shift, line selected with SAL-0010003, Well E2 ([5]; vs Dd2-B2)","EC50 shift, line selected with SAL-0010003, Well F10 ([5]; vs Dd2-B2)"
CC(C)c1[nH]nc2c(=O)[nH]c(Cc3ccccc3F)nc12 [SAL-0010042],204 nM,197 nM,132 nM,–,–,–,–,–,–,–,–,–,–,–,–,–
CC(C)c1n[nH]c2c(=O)[nH]c(Cc3ccc(F)cc3F)nc12 [SAL-0010003],–,–,–,0 h,3.11,47.1 h,−0.0647 ± 0.0047,fast/moderate killing profile,304 nM,2800 nM,2510 nM,1620 nM,7.6 ± 2.0 fold,9.2 fold,8.3 fold,5.3 fold
